Data set [1] has as its system T cells isolated from mouse spleens. Put plainly: T cell proliferation inhibition (CFSE flow cytometry, anti-CD3/anti-CD28 stimulation). The class given is cell-based. The conditions noted are these: mouse spleen T cells, 3 days; for inhibition at 0.01 µM / inhibition at 0.1 µM / inhibition at 1 µM / inhibition at 10 µM / inhibition at 30 µM / inhibition at 50 µM: Mus musculus, T-cell, 72 h, read-out: Proliferation inhibition rate (%). The gist of the method: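 Proliferation inhibition (%) came from flow cytometry of CFSE dilution after 3 days' culture at 37 °C with compound (10 nM, 100 nM, 1, 10, 30, 50 μM; triplicate wells). Cells were magnetically purified T cells from C57BL/6 mouse spleens, 2×10^5 per well, stimulated with 0.5 μg/mL each anti-CD3 and anti-CD28.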

In data set [2] the test system is Human B Lymphocyte cell line, SU-DHL-8. Description: Relative cell viability CCK-8, SU-DHL-8. The conditions noted are these: 48 hours, untreated (DMSO) = 100%; for viability at 1 µM / viability at 10 µM / viability at 30 µM / viability at 50 µM: Homo sapiens, SU-DHL-8, 48 h; for viability at 1 µM: read-out: Relative cell viability (%), SU-DHL-8, 1 μM; for viability at 10 µM: read-out: Relative cell viability (%), SU-DHL-8, 10 μM; for viability at 30 µM: read-out: Relative cell viability (%), SU-DHL-8, 30 μM; for viability at 50 µM: read-out: Relative cell viability (%), SU-DHL-8, 50 μM. The class given is cell-based. The protocol: Human-derived B lymphoma cell line SU-DHL-8 (Cat. #CRL-2961) purchased from ATCC was cultured in RPMI-1640 medium containing 10% FBS, 100 U/mL penicillin, and 100 μg/mL streptomycin.
The cell culture medium was then harvested, centrifuged at 1,300 rpm for 5 minutes, and the supernatant was removed. The cells were resuspended in the same medium and dispensed into a 96-well plate (Costar 96-well cell culture plate, Corning) at 90 μL per well, resulting in the conditions specified in Table 5.
Then, 10 μL of CCK-8 was added to each well, and the plates were incubated again at 37° C. in a 5% CO2 incubator for 4 hours.
In other words, when the survival rate of untreated cells (DMSO) is set at 100%, the relative cell survival rate in each group treated with the drug at different concentrations is indicated.

Consider 12 compounds from patent US20260183274A1, “PDK1 REGULATORY COMPOUND AND COMPOSITION CONTAINING THE SAME” (PROVIBIO CO., LTD., priority 2024, published 2026).

As for `CN1CCN(CCCCCCCCCCCCNC(=O)c2ccc3[nH]cnc3c2)CC1` [Compound 91, N-(12-(4-methylpiperazin-1-yl)dodecyl)-1H-benzo[d]imidazole-5-carboxamide], the inhibition at 0.01 µM in data set [1] (compound 10 nM) is -14.6%. For the same compound, in data set [1] (compound 100 nM), the inhibition at 0.1 µM turned out to be 100%. In addition, the inhibition at 1 µM in data set [1] (compound 1 μM) is 100%. For the same compound, the inhibition at 10 µM in data set [1] (compound 10 μM) turned out to be 100%. Besides, in data set [1] (compound 30 μM), the inhibition at 30 µM was 100%. Also, the inhibition at 50 µM in data set [1] (compound 50 μM) was 100%. In data set [2], the viability at 1 µM turned out to be 3.93%, the viability at 10 µM worked out at 3.12%, the viability at 30 µM amounted to 1.84% and the viability at 50 µM came to 1.59%.

Regarding `O=C(NCCCCCCCCCCCCF)c1cccnc1S` [Compound 62, N-(12-fluoro-dodecyl)-2-mercapto-nicotinamide], in data set [1] (compound 10 nM), the inhibition at 0.01 µM came to 0%. Further, in data set [1] (compound 100 nM), the inhibition at 0.1 µM came to 0%. Also, the inhibition at 1 µM in data set [1] (compound 1 μM) is 0%. In data set [1] (compound 10 μM), the inhibition at 10 µM was -18.5%. The inhibition at 30 µM in data set [1] (compound 30 μM) was determined as 100%. For the same compound, the inhibition at 50 µM in data set [1] (compound 50 μM) stood at 100%. For the same compound, in data set [2], the viability at 1 µM stood at 32.5%, the viability at 10 µM was determined as 24.9%, the viability at 30 µM worked out at 22.9% and the viability at 50 µM is 19.3%.

In the case of `Nc1ncccc1C(=O)NCCCCCCCCCCCCn1nnc2cccnc21` [Compound 88, N-(12-(3H-[1,2,3]triazolo[4,5-b]pyridin-3-yl)dodecyl)-2-aminonicotinamide], the inhibition at 0.01 µM in data set [1] (compound 10 nM) was -3.22%. Moreover, in data set [1] (compound 100 nM), the inhibition at 0.1 µM is 4.29%. Further, in data set [1] (compound 1 μM), the inhibition at 1 µM is 56.3%. In data set [1] (compound 10 μM), the inhibition at 10 µM was found to be 100%. Also, the inhibition at 30 µM in data set [1] (compound 30 μM) was found to be 100%. Moreover, in data set [1] (compound 50 μM), the inhibition at 50 µM stood at 100%. Moreover, in data set [2], the viability at 1 µM turned out to be 12.6%, the viability at 10 µM came out at 5.98%, the viability at 30 µM stood at 5.06% and the viability at 50 µM came out at 2.23%.

`Cl.Nc1ncccc1C(=O)NCCCCCCCCCCCCF` [Compound 69, 3-(12-fluoro-dodecylcarbamoyl)-pyridin-2-yl-ammonium chloride]: the “Proliferation inhibition rate (%)” value in data set [1] (compound 10 nM) was −4.04%; in data set [1] (compound 100 nM), −4.66%; in data set [1] (compound 1 μM) it was 7.14%; in data set [1] (compound 10 μM) it was 65.36%; in data set [1] (compound 30 μM), 89.94%; in data set [1] (compound 50 μM), 99.20%. The “Relative cell viability (%), SU-DHL-8” value is given as 27.80% in data set [2] (1 μM), 15.16% in data set [2] (10 μM), 1.05% in data set [2] (30 μM) and 0.77% in data set [2] (50 μM).

As for `Nc1ncccc1C(=O)NCCCCCCCCCCCCN1CCC(F)C1` (stereo not drawn) [Compound 26, 2-Amino-N-(12-(3-fluoropyrrolidin-1-yl)dodecyl) nicotinamide], the “Proliferation inhibition rate (%)” value turned out to be 2.13% in data set [1] (compound 10 nM); 100.00% in data set [1] (compound 100 nM); 100.00% in data set [1] (compound 1 μM); 100.00% in data set [1] (compound 10 μM); 100.00% in data set [1] (compound 30 μM); 100.00% in data set [1] (compound 50 μM). For the same compound, the “Relative cell viability (%), SU-DHL-8” value came out at 1.70% in data set [2] (1 μM), 1.04% in data set [2] (10 μM) and 0.05% in data set [2] (30 μM).

As for `O=C(NCCCCCCCCCCCCF)c1ncccc1O` [Compound 64, 3-Hydroxy-pyridine-2-carboxylic acid (12-fluoro-dodecyl)-amide], the inhibition at 0.01 µM in data set [1] (compound 10 nM) is -4.11%. Besides, in data set [1] (compound 100 nM), the inhibition at 0.1 µM stood at 8.63%. Also, the inhibition at 1 µM in data set [1] (compound 1 μM) was found to be 6.99%. For the same compound, in data set [1] (compound 10 μM), the inhibition at 10 µM amounted to 8.94%. Besides, in data set [1] (compound 30 μM), the inhibition at 30 µM was found to be 80.4%. In addition, the inhibition at 50 µM in data set [1] (compound 50 μM) was determined as 97%. In data set [2], the viability at 1 µM was found to be 23.3%, the viability at 10 µM came out at 14.1%, the viability at 30 µM came to 6.51% and the viability at 50 µM turned out to be 6.33%.

For the compound `COC1CCN(CCCCCCCCCCCCNC(=O)c2cccnc2N)C1` (stereo not drawn) [Compound 32, 2-Amino-N-(12-(3-methoxypyrrolidin-1-yl)dodecyl) nicotinamide], the “Proliferation inhibition rate (%)” value in data set [1] (compound 10 nM, listed as PBK-2024-024, 0.01 µM) is on record as 0.29%. The “Relative cell viability (%), SU-DHL-8” value came to 3.48% in data set [2] (1 μM, listed as PBK-2024-024, 1 µM); 3.01% in data set [2] (10 μM, listed as PBK-2024-024, 10 µM); 1.97% in data set [2] (30 μM, listed as PBK-2024-024, 30 µM); 1.45% in data set [2] (50 μM, listed as PBK-2024-024, 50 µM).

For `COc1cc2c(cc1OC)CN(CCCCCCCCCCCCNC(=O)c1cccnc1N)CC2` [Compound 125, 2-Amino-N-(12-(6,7-dimethoxy-3,4-dihydroisoquinolin-2 (1H)-yl)dodecyl)nicotinamide], the inhibition at 0.01 µM in data set [1] (compound 10 nM) is -4.48%. In data set [1] (compound 100 nM), the inhibition at 0.1 µM was 100%. In addition, the inhibition at 1 µM in data set [1] (compound 1 μM) came to 100%. The inhibition at 10 µM in data set [1] (compound 10 μM) was found to be 100%. The inhibition at 30 µM in data set [1] (compound 30 μM) amounted to 100%. Moreover, the inhibition at 50 µM in data set [1] (compound 50 μM) came out at 100%. Besides, in data set [2], the viability at 1 µM came to 42%, the viability at 10 µM was found to be 42.6%, the viability at 30 µM was 42% and the viability at 50 µM turned out to be 42.7%.

Regarding `Nc1ncccc1C(=O)NCCCCCCCCCCN1CCOCC1` [Compound 63, 2-Amino-N-(10-morpholin-4-yl-decyl)-nicotinamide], in data set [1] (compound 10 nM), the inhibition at 0.01 µM is -9.84%. For the same compound, the inhibition at 0.1 µM in data set [1] (compound 100 nM) was found to be 4.85%. Also, the inhibition at 1 µM in data set [1] (compound 1 μM) is 11.2%. For the same compound, the inhibition at 10 µM in data set [1] (compound 10 μM) stood at 100%. In addition, the inhibition at 30 µM in data set [1] (compound 30 μM) turned out to be 100%. The inhibition at 50 µM in data set [1] (compound 50 μM) was 100%. Moreover, in data set [2], the viability at 1 µM amounted to 33%, the viability at 10 µM came to 29.8%, the viability at 30 µM turned out to be 29.1% and the viability at 50 µM stood at 27.9%.

Turning to `Nc1ncccc1C(=O)NCCCCCCCCCCCCN1CCSCC1` [Compound 4, 2-Amino-N-(12-thio-morpholin-4-yl-dodecyl)-nicotinamide], the inhibition at 0.01 µM in data set [1] (compound 10 nM) turned out to be 2.7%. For the same compound, the inhibition at 0.1 µM in data set [1] (compound 100 nM) was 100%. The inhibition at 1 µM in data set [1] (compound 1 μM) was found to be 100%. The inhibition at 10 µM in data set [1] (compound 10 μM) worked out at 100%. The inhibition at 30 µM in data set [1] (compound 30 μM) came to 100%. The inhibition at 50 µM in data set [1] (compound 50 μM) came to 100%. Besides, in data set [2], the viability at 1 µM was 7.58%, the viability at 10 µM was 5.49%, the viability at 30 µM stood at 4.68% and the viability at 50 µM came out at 4.45%.

With `Nc1ncccc1C(=O)CCCCCCCCCCCCCN1CC2CCC(C1)O2` [Compound 131, 1-(2-aminopyridin-3-yl)-14-(8-oxa-3-azabicyclo[3.2.1]octan-3-yl)tetradecan-1-one], the inhibition at 0.01 µM in data set [1] (compound 10 nM) is -6.12%. Also, in data set [1] (compound 100 nM), the inhibition at 0.1 µM turned out to be 100%. Besides, the inhibition at 1 µM in data set [1] (compound 1 μM) turned out to be 100%. Moreover, in data set [1] (compound 10 μM), the inhibition at 10 µM worked out at 100%. Besides, the inhibition at 30 µM in data set [1] (compound 30 μM) was determined as 100%. Besides, in data set [1] (compound 50 μM), the inhibition at 50 µM came out at 100%. Further, in data set [2], the viability at 1 µM amounted to 44.8%, the viability at 10 µM was 42.1%, the viability at 30 µM came out at 42.7% and the viability at 50 µM was 42.5%.

As to `CN1CCN(C2CCN(CCCCCCCCCCCCNC(=O)c3cccnc3N)CC2)CC1` [Compound 124, 2-Amino-N-(12-(4-(4-methylpiperazin-1-yl)piperidin-1-yl)dodecyl)nicotinamide], the inhibition at 0.01 µM in data set [1] (compound 10 nM) is 0%. Besides, the inhibition at 0.1 µM in data set [1] (compound 100 nM) came out at 20%. The inhibition at 1 µM in data set [1] (compound 1 μM) was 30%. For the same compound, in data set [1] (compound 10 μM), the inhibition at 10 µM worked out at 100%. In addition, in data set [1] (compound 30 μM), the inhibition at 30 µM was 100%. Moreover, in data set [1] (compound 50 μM), the inhibition at 50 µM is 100%. For the same compound, in data set [2], the viability at 1 µM is 30.4%, the viability at 10 µM was 30.7%, the viability at 30 µM is 32.1% and the viability at 50 µM stood at 31.7%.
